Test results taken from patent publication US20240246918A1, “COMPOUNDS AND COMPOSITIONS AS EIF4E INHIBITORS AND THE USES THEREOF” (Ribometrix, Inc., priority 2022, published 2024).

Key:
[1] = target: T1, human eIF4E protein (Homo sapiens, UniProt P06730); assay: Biochemical competitive binding assay (TR-FRET competition, EDA-m7GDP-ATTO-647N probe); settings: read-out: hEIF4E TR-FRET IC50
T1 construct: purchased Novus NBP-45314
Procedure, shortened: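 His-tagged human eIF4E (4 nM) was preincubated with Eu-anti-His antibody (2.5 nM) and added to compound (11-point, 4-fold dilutions) for 15 min. Then 5 nM EDA-m7GDP-ATTO-647N was added for 15 min, in HEPES pH 7.5, 100 mM KCl. The 665/620 TR-FRET ratio was normalized to controls, and IC50 was taken from 4-parameter fits.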

[2] = test system: COLO 205 colorectal tumor cells; assay: Tumor cell viability inhibition assay (CellTiter-Glo 2.0, 72 hours); assay type: cell-based; settings: COLO 205 cell viability
Procedure, shortened: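 COLO 205 cells (1500/well, RPMI-1640 + 10% FBS) exposed for 72 h to an 11-point, 4-fold dilution series; cellular ATP read by CellTiter-Glo 2.0 luminescence. Data normalized to DMSO and maximum-inhibition controls; IC50 from 4-parameter curve fit.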

T1 sequence (P06730 whole entry): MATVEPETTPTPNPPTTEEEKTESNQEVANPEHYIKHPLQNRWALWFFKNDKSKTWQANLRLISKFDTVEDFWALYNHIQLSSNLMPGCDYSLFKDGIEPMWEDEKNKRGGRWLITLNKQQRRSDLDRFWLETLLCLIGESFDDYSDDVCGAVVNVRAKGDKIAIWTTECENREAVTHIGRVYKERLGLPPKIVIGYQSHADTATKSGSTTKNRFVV

SMILES	IC50 [1]	IC50 ([2]; Homo sapiens, COLO 205, 72 h)	IC50 [2]
Cc1cc(-c2cc(Cl)ccc2OCCn2c(C)nc3c(c2=O)CC(C)(N2CCC(OC(F)(F)F)CC2)CC3)c2scc(C(=O)O)c2n1 (single isomer, unassigned) [Compound 515]	< 0.1 µM	< 5 µM	
Cc1cc(-c2cc(Cl)ccc2OCCn2c(C)nc3c(c2=O)C[C@H](N2CCCC[C@H]2c2cccc(C(F)(F)F)c2)CC3)c2scc(C(=O)O)c2n1 (single isomer, unassigned) [Compound 587]	< 0.1 µM	< 5 µM	
Cc1cc(-c2cc(Cl)ccc2OCCn2c(C)nc3c(c2=O)C[C@@H](N(C)C[C@H]2C[C@](C)(O)C2)CC3)c2scc(C(=O)O)c2n1 (single isomer, unassigned) [Compound 211]	< 0.1 µM	> 20 µM	
CO[C@@H]1CCN([C@]2(C)CCc3nc(C)n(CCOc4ccc(Cl)cc4-c4cc(C)nc5c(C(=O)O)csc45)c(=O)c3C2)CC1(C)C (single isomer, unassigned) [Compound 558]	0.1 to 0.5 µM	5 to 20 µM	
Cc1cc(-c2cc(Cl)ccc2OCCn2c(C)nc3c(c2=O)C[C@@H](N2CC[C@@H](OC(F)(F)F)C(C)(C)C2)CC3)c2scc(C(=O)O)c2n1 (single isomer, unassigned) [Compound 393]	< 0.1 µM	5 to 20 µM	
Cc1cc(-c2cc(Cl)ccc2OCCn2c(C)nc3c(c2=O)C[C@H](N2[C@@H]4CC[C@H]2C[C@@H](OC(F)(F)F)C4)CC3)c2scc(C(=O)O)c2n1 (single isomer, unassigned) [Compound 398]	0.1 to 0.5 µM	> 20 µM	
Cc1cc(-c2cc(Cl)ccc2OCCn2c(C)nc3c(c2=O)CC(N2C4CCC2CC(F)(F)C4)CC3)c2scc(C(=O)O)c2n1 (stereo not drawn) [Compound 126]	< 0.1 µM	< 5 µM	
Cc1cc(-c2cc(Cl)ccc2OCCn2c(C)nc3c(c2=O)C[C@@H](N2C[C@H]4CC[C@@H]2CC4OC(F)(F)F)CC32CC2)c2scc(C(=O)O)c2n1 (single isomer, unassigned) [Compound 607]	< 0.1 µM	< 5 µM	
Cc1cc(-c2cc(Cl)ccc2OCCn2c(C)nc3c(c2=O)C[C@@H](N2C[C@@H]4CC[C@H]2CC4OC(F)(F)F)CC3)c2scc(C(=O)O)c2n1 (single isomer, unassigned) [Compound 498]	< 0.1 µM	< 5 µM	
Cc1cc(-c2cc(Cl)ccc2OCCn2c(C)nc3c(c2=O)CC(N2CCC4(CC2)CC4(F)F)CC32CC2)c2scc(C(=O)NS(C)(=O)=O)c2n1 (single isomer, unassigned) [Compound 632]	< 0.1 µM	< 5 µM	
Cc1cc(-c2cc(Cl)ccc2OCCn2c(C)nc3c(c2=O)C[C@@H](N2CCC(c4ccccc4OC(F)(F)F)CC2)CC3)c2scc(C(=O)O)c2n1 (single isomer, unassigned) [Compound 572]	< 0.1 µM	< 5 µM	
Cc1cc(-c2cc(Cl)ccc2OCCn2c(C)nc3c(c2=O)CC(N2CCC4(CC2)CN(CC(F)(F)F)CCO4)CC3)c2scc(C(=O)O)c2n1 (single isomer, unassigned) [Compound 518]	< 0.1 µM		< 5 µM
Cc1cc(-c2cc(Cl)ccc2OCCn2c(C)nc3c(c2=O)C[C@H](N2CCC(c4ccccc4OC(F)(F)F)CC2)CC3)c2scc(C(=O)O)c2n1 (single isomer, unassigned) [Compound 571]	< 0.1 µM	< 5 µM	
Cc1nc2c(c(=O)n1CC#Cc1ccc(Cl)cc1-c1ccnc3c(C(=O)O)csc13)C[C@H](N1CCC[C@]3(C1)CC3(F)F)CC2 (single isomer, unassigned) [Compound 570, 7-(5-chloro-2-(3-(6-(1,1-difluoro-5-azaspiro[2.5]octan-5-yl)-2-methyl-4-oxo-5,6,7,8-tetrahydroquinazolin-3(4H)-yl)prop-1-yn-1-yl)phenyl)thieno[3,2-b]pyridine-3-carboxylic acid]	< 0.1 µM	< 5 µM	
Cc1cc(-c2cc(Cl)ccc2OCCn2c(C)nc3c(c2=O)C[C@@H](N2CCC(OC(F)F)CC2)CC3)c2scc(C(=O)O)c2n1 (single isomer, unassigned) [Compound 360]	< 0.1 µM	< 5 µM	
Cc1cc(-c2cc(Cl)ccc2OCCn2c(C)nc3c(c2=O)C[C@H](N2CCC[C@H](c4ncccc4F)C2)CC3)c2scc(C(=O)O)c2n1 (single isomer, unassigned) [Compound 464]	< 0.1 µM	< 5 µM	
Cc1cc(-c2cc(Cl)ccc2OCCn2c(C)nc3c(c2=O)C[C@H](N2CCC[C@H](c4cnn(C)c4)C2)CC3)c2scc(C(=O)O)c2n1 (single isomer, unassigned) [Compound 485]	< 0.1 µM	< 5 µM	
Cc1cc(-c2cc(Cl)ccc2OCCn2c(C)nc3c(c2=O)C[C@H](N2Cc4cc(F)c(F)cc4C2)CC3)c2scc(C(=O)O)c2n1 (single isomer, unassigned) [Compound 532]	< 0.1 µM	< 5 µM	

SMILES	IC50 [1]	IC50 ([2]; Homo sapiens, COLO 205, 72 h)	IC50 [2]
Cc1cc(-c2cc(Cl)ccc2OCCn2c(C)nc3c(c2=O)C[C@@H](N2CCC4(CC2)CC(F)(F)CO4)CC3)c2scc(C(=O)O)c2n1 (single isomer, unassigned) [Compound 490]	< 0.1 µM	< 5 µM	
Cc1cc(-c2cc(Cl)ccc2C#CCn2c(C)nc3c(c2=O)CC(C)(N2CCCC4(C2)CC4(F)F)CC3)c2scc(C(=O)O)c2n1 (single isomer, unassigned) [Compound 615]	0.1 to 0.5 µM		> 20 µM
Cc1cc(-c2cc(Cl)ccc2OCCn2c(C)nc3c(c2=O)C[C@H](N2CC[C@@H](OC(F)(F)F)C(C)(C)C2)CC3)c2scc(C(=O)O)c2n1 (single isomer, unassigned) [Compound 395]	< 0.1 µM	5 to 20 µM	
CO[C@@H]1CCN([C@@H]2CCc3nc(C)n(CCOc4ccc(Cl)cc4-c4cc(C)nc5c(C(=O)O)csc45)c(=O)c3C2)CC12CC2 (single isomer, unassigned) [Compound 519]	< 0.1 µM	> 20 µM	
Cc1cc(-c2cc(Cl)ccc2OCCn2c(C)nc3c(c2=O)C[C@@H](N2CCC[C@H](c4ncccc4F)C2)CC3)c2scc(C(=O)O)c2n1 (single isomer, unassigned) [Compound 467]	< 0.1 µM	< 5 µM	
Cc1cc(-c2cc(Cl)ccc2OCCn2c(C)nc3c(c2=O)C[C@@H](N2CCC4(CCCO4)CC2)CC3)c2scc(C(=O)O)c2n1 (single isomer, unassigned) [Compound 421]	< 0.1 µM	< 5 µM	
Cc1cc(-c2cc(Cl)ccc2OCCn2c(C)nc3c(c2=O)C[C@@H](N2CCC(c4cc(F)ccc4C(F)(F)F)CC2)CC3)c2scc(C(=O)O)c2n1 (single isomer, unassigned) [Compound 586]	< 0.1 µM	< 5 µM	
Cc1cc(-c2cc(Cl)ccc2OCCn2c(C)nc3c(c2=O)C[C@H](N2CCC(c4nccs4)CC2)CC3)c2scc(C(=O)O)c2n1 (single isomer, unassigned) [Compound 475]	< 0.1 µM	< 5 µM	
Cc1cc(-c2cc(Cl)ccc2OCCn2c(C)nc3c(c2=O)C[C@@H](N2CCC(O)CC2)CC3)c2scc(C(=O)O)c2n1 (single isomer, unassigned) [Compound 435]	< 0.1 µM	< 5 µM	
Cc1cc(-c2cc(Cl)ccc2OCCn2c(C)nc3c(c2=O)C[C@H](N2CCC(COC(F)(F)F)CC2)CC3)c2scc(C(=O)O)c2n1 (single isomer, unassigned) [Compound 452]	< 0.1 µM	< 5 µM	
COC1CCN([C@H]2Cc3c(nc(C)n(CCOc4ccc(Cl)cc4-c4cc(C)nc5c(C(=O)O)csc45)c3=O)C3(CC3)C2)CC1 (single isomer, unassigned) [Compound 371]	< 0.1 µM	< 5 µM	
Cc1cc(-c2cc(Cl)ccc2OCCn2c(C)nc3c(c2=O)C[C@@H](N2CCC(OC(F)(F)F)CC2)[C@H]2C[C@@H]32)c2scc(C(=O)O)c2n1 (single isomer, unassigned) [Compound 598]	< 0.1 µM	< 5 µM	
COC1CCN([C@@H]2Cc3c(nc(C)n(CCOc4ccc(Cl)cc4-c4cc(C)nc5c(C(=O)O)csc45)c3=O)C3(CC3)C2)CC1 (single isomer, unassigned) [Compound 372]	< 0.1 µM	< 5 µM	
Cc1csc(C2CCN([C@H]3CCc4nc(C)n(CCOc5ccc(Cl)cc5-c5cc(C)nc6c(C(=O)O)csc56)c(=O)c4C3)CC2)n1 (single isomer, unassigned) [Compound 428]	< 0.1 µM	< 5 µM	
COC1CCN([C@@H]2CCc3nc(C)n(CCOc4ccc(Cl)cc4-c4cc(C)nc5c(C(=O)O)csc45)c(=O)c3[C@@H]2C)CC1 (stereo in doubt) [Compound 103, 7-(5-chloro-2-(2-(6-(4-methoxypiperidin-1-yl)-2,5-dimethyl-4-oxo-5,6,7,8-tetrahydroquinazolin-3(4H)-yl)ethoxy)phenyl)-5-methylthieno[3,2-b]pyridine-3-carboxylic acid]	< 0.1 µM	5 to 20 µM	
Cc1cc(-c2cc(Cl)ccc2OCCn2c(C)nc3c(c2=O)C[C@](C)(N2C[C@@H]4CC(F)(F)C[C@@H]4C2)CC3)c2scc(C(=O)O)c2n1 (stereo in doubt) [Compound 566]	< 0.1 µM	< 5 µM	
Cc1cc(-c2cc(Cl)ccc2OCCn2c(C)nc3c(c2=O)CC(CN)(N2CCC(OC(F)(F)F)CC2)CC3)c2scc(C(=O)O)c2n1 (single isomer, unassigned) [Compound 622]	< 0.1 µM	> 20 µM	
Cc1cc(-c2cc(Cl)ccc2OCCn2c(C)nc3c(c2=O)CC(N2CCC(C(F)F)CC2)CC3)c2scc(C(=O)O)c2n1 (stereo not drawn) [Compound 124]	< 0.1 µM	< 5 µM	
